Experiment: gradient 5% acetonitrile 3 min, to 50% in 2 min, to 85% in 15 min, held 3 min, 100 µL/min
Conditions: column: Zorbax Extend-C18 2.1 x 50 mm; eluents: water / acetonitrile, 0.1% formic acid
Method in brief: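 Standards, all pure, were combined into mixtures of ~100 molecules and run at 100 μL/min on a Zorbax Extend-C18 column (2.1 × 50 mm, 1.8 μm) with water and acetonitrile, each containing 0.1% formic acid. A coupled quadrupole time-of-flight mass spectrometer operated in positive and negative ionization mode. Retention time values come from computationally picked adduct peaks, each inspected manually.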

RP-LC retention time	Structure (SMILES)
952 s	Cc1nc(-c2csc(S(=O)(=O)N3CCCC(C(=O)Nc4ccc(F)cc4F)C3)c2)no1 (stereo not drawn)
1030 s	Cc1ccc(CNC(=O)CN2CCc3ccccc3C2C(=O)N2CCC(C)CC2)cc1C (stereo not drawn)
897 s	Cc1ccc(NC(=O)C2CCN(S(=O)(=O)c3ccc4[nH]c5c(c4c3)CCCCC5)CC2)nc1
695 s	CCc1cc2c3c([nH]c2cc1S(=O)(=O)N1CCN(c2ccccn2)CC1)CC(C)(C)CC3=O
768 s	Cc1ccc(NC(=O)CN2C(=O)CCS(=O)(=O)c3ccccc32)c(C)c1
897 s	CCc1noc(NC(C)=O)c1-c1ccc(C)c(S(=O)(=O)Nc2ccc(C)c(C)c2)c1
682 s	Cc1nc2cc3c(cc2n1CC(=O)NC1CCCc2ccccc21)OCCO3 (stereo not drawn)
891 s	Cc1ccccc1Cn1nc2ccc(S(=O)(=O)N3CCCC3)cn2c1=O
692 s	CCN1C(=O)C2CCC(=O)N2c2ccc(C(=O)NC3CCCC3)cc21 (stereo not drawn)
952 s	CC(C)(C)c1noc(-c2ccnc(-n3cnc(C(=O)N4CCSCC4)c3)c2)n1
784 s	COc1ccc(-c2noc(N3CCC(C(=O)Nc4cc(C)on4)CC3)n2)cc1OC
658 s	O=C(NCCCN1CCOCC1)c1ccc(OCc2nnc(C(=O)Nc3ccccc3F)s2)cc1
861 s	CCCNC(=O)N1CCCN(C2=NS(=O)(=O)C(c3ccc(F)cc3)=C2C)CC1
1120 s	CCCNC(=O)c1ccc(CN2CC(=O)N3CCCCC3C2=O)cc1 (stereo not drawn)
660 s	CCC(C)NC(=O)C1CCN(S(=O)(=O)c2cc(C(=O)N3CCCC3)n(C)c2)CC1 (stereo not drawn)
660 s	CS(=O)(=O)N(C1CCOCC1)C1CN(C(=O)NCc2ccccc2)C1
630 s	Cc1nc(-c2cn(C(C)C)c3ncccc23)sc1C(=O)NCCN1CCOCC1
891 s	CCC(=O)N1CCc2cc(C(=O)NCCC3=CCCCC3)ccc21
914 s	Cc1ccc(N2CC(c3noc(C4CCC4)n3)CC2=O)cc1 (stereo not drawn)
924 s	Cc1ccc(C)c(NC(=O)CN(C)S(=O)(=O)c2cc(C(=O)N3CCC(C)CC3)n(C)c2)c1
544 s	CCN1CCN(CCNC(=O)C(C)n2c3ccccc3c3cnn(C)c(=O)c32)CC1 (stereo not drawn)

RP-LC retention time	Structure (SMILES)
875 s	CC1CCc2nn(CC(=O)Nc3ccc(F)cc3F)cc2C1 (stereo not drawn)
852 s	CCc1nc2cc(N3CCC(C(=O)NCc4ccc(F)cc4F)CC3)cnc2nc1CC
678 s	CS(=O)(=O)N(C1CCOCC1)C1CN(C(=O)CCc2c[nH]c3ccccc23)C1
1170 s	CC(=O)Nc1onc(C)c1-c1ccc(C)c(S(=O)(=O)NCc2ccc(N(C)C)cc2)c1
590 s	Cc1ccc(Nc2cc(C)nc(N3CCN(C(=O)c4ccco4)CC3)n2)cc1
780 s	Cc1ccc(CNC(=O)C2(C)Cn3cnc(C(=O)NCc4ccccc4F)c3C(=O)N2C2CC2)cc1 (stereo not drawn)
805 s	COc1ccc(C(=O)N2CCN(c3ccc(-c4nc(C)cs4)cn3)CC2)cc1
882 s	Cn1c(=O)n(C)c2cc(S(=O)(=O)c3ccc(F)cc3)c(NC(=O)c3ccccc3F)cc21
619 s	O=C(CNC(=O)C1CCCCC1)Nc1nc2ccccc2[nH]1
875 s	CCC(C(=O)N1CCN(c2ncccn2)CC1)n1c2ccccc2c2cnn(C)c(=O)c21 (stereo not drawn)
1060 s	Cc1ccc(C)c(NC(=O)N2c3ccccc3CC2c2nc(C3CC3)no2)c1 (stereo not drawn)
621 s	O=C(NCCCN1CCCCC1)c1cc(=O)n2c(nc3ccccc32)s1
785 s	CCOc1ccc(NC(=O)N2CCC3(CC2)NC(=O)c2ccccc2N3CC)cc1
577 s	CCn1cc(S(=O)(=O)N2CCCn3nc(-c4ccncc4)cc3C2)cn1
594 s	CCN1CCN(c2cc(C)c3cc(NC(=O)COc4ccc(F)cc4)ccc3n2)CC1
772 s	Cc1cc(=O)n(CC(=O)Nc2cccc(C#N)c2)c(N2CCc3ccccc3C2)n1
1210 s	Cc1cccc(-n2cc(C(=O)OCC(=O)OC(C)(C)C)c3ccccc3c2=O)c1
759 s	CCn1c(=O)c(N2CCC(NC(=O)NC)CC2)nc2ccccc21
767 s	CCN1CCC(O)(/C=C/c2ccc(C)cc2)C(C(=O)/C=C/c2ccc(C)cc2)C1 (stereo not drawn)
1090 s	CCOc1ccc(S(=O)(=O)N2CCCC(C(=O)Nc3cc(C)ccc3OC)C2)cc1 (stereo not drawn)

The remaining lines, values behind:

Structure (SMILES)	RP-LC retention time
CCN1C(=O)COc2ccc(-c3csc(NC(=O)c4ccccc4Cl)n3)cc21	968 s
CCOc1ccccc1CNC(=O)Cc1csc2nc(-c3ccccc3)cn12	830 s
CCc1ccc(CNC(=O)c2cn3c(n2)CCCC3)cc1	646 s
CCCCc1nc(N2CCN(C(=O)c3ccco3)CC2)c(C#N)c2c1COC(C)(C)C2	1190 s
CCN1C(=O)CN(C(=O)C2CCCC2)CC12CCOCC2	651 s
CCNC(=O)c1sc2nc(-c3cccc(F)c3)c(NCCOC)n2c1C	800 s
Cc1noc(-c2cccnc2N2CCCN(Cc3ccc(F)cc3)CC2)n1	634 s
CCCNC(=O)c1sc(-n2nc(C)c(Cl)c2C)nc1C	1130 s
COc1ccc2c(CCNC(=O)Nc3ccc(Cl)cc3)c[nH]c2c1	711 s
COc1cccc(NC(=O)[C@H]2[C@@H](c3cc(OC)c(OC)c(OC)c3)c3cc4c(cc3[C@@H](O)[C@@H]2CO)OCO4)c1	704 s
CCc1cccc(NC(=O)c2cc(C)n3nccc3n2)c1	1030 s
Cc1noc(-c2ccc(=O)n(C(C)C(=O)NCc3cccs3)c2)n1 (stereo not drawn)	646 s
O=S(=O)(NCCC1=CCCCC1)c1ccc(-c2cc(C(F)(F)F)on2)o1	1240 s
Cc1ccc(-c2noc(-c3cccc(S(=O)(=O)NCc4ccc(C)o4)c3)n2)cc1	1170 s
CCOc1ccc(NC(=O)C2CCCN(c3cnc4nccnc4c3)C2)cc1 (stereo not drawn)	689 s
CCn1c(=O)c(N2CCCC(C(=O)NCc3cccc(Br)c3)C2)nc2ccccc21 (stereo not drawn)	1080 s
Nc1nc(N2CCOCC2)ncc1C(=O)NCc1ccccc1	609 s
CC(C)[C@@H]1NC(=O)[C@H](Cc2ccccc2)NC(=O)[C@@H](CC(=O)O)NC(=O)CNC(=O)[C@H](CCCN=C(N)N)NC1=O	624 s
O=c1c(=O)n(Cc2nc(-c3cccc(F)c3)no2)ccn1Cc1ccc(Cl)cc1	930 s
C=CCn1c(=O)c2ccccc2n(Cc2nc(-c3cccc(OC)c3)no2)c1=O	1010 s
O=C(Nc1ccc(N2CCOCC2)cc1)c1cc2ccccc2o1	757 s
CC[C@H](C)C(=O)O[C@H]1CCC=C2C=C[C@H](C)[C@H](CC[C@@H](O)C[C@@H](O)CC(=O)O)[C@H]21	910 s
Cc1noc2nc(CCC(=O)Nc3ccc(Cl)cc3F)nc(N3CCOCC3)c12	818 s
CSc1ccc(CNC(=O)Cn2cc(-c3nnco3)c3ccccc32)cc1	805 s

Structure (SMILES)	RP-LC retention time
CC(C)(C)c1ccc(OCC(=O)N(Cc2ccc(Br)o2)C2CCS(=O)(=O)C2)cc1 (stereo not drawn)	1060 s
COc1cccc(-c2csc(-c3nnn(-c4cccc(OC)c4)c3N)n2)c1	1110 s
CC(C)c1ccc(S(=O)(=O)c2cnc(N3CCC(C(N)=O)(N4CCCCC4)CC3)nc2N)cc1	677 s
CC(C)CCC(=O)N1CCC2(CC1)CC(O)CCO2 (stereo not drawn)	644 s
COCCNC(=O)CN1c2ccccc2NC2=C(C(=O)CC(C)(C)C2)C1c1ccccc1OC (stereo not drawn)	756 s
O=C(c1nnc(-c2ccc(S(=O)(=O)N3CCOCC3)cc2)o1)N1CCC2(CC1)OCCO2	730 s
Cc1nnc(-c2coc(S(=O)(=O)N3CCC(N4CCCCC4)CC3)c2)o1	615 s
CC(C)c1ccc(S(=O)(=O)N2CCCC2c2nc(-c3ccc(Cl)cc3)no2)cc1 (stereo not drawn)	1360 s
O=C(Cn1c(=O)c(=O)n(Cc2ccccc2)c2ncccc21)NCCc1ccco1	797 s
Cc1cc(=O)n(CC(=O)N(C)C2CCCCC2)c(N2CCOCC2)n1	656 s
CN(CC1CCOC1)C(=O)Cc1cccc(Cl)c1 (stereo not drawn)	734 s
COc1ccc(C2(C(=O)N3CCOc4ccc(N5CCOCC5)cc4C3)CC2)cc1	794 s
CCc1c(C(=O)O)nnn1-c1ccc(Cl)cc1	748 s
CCOC(=O)c1noc2nc(C)nc(N3CCN(c4ccccc4)CC3)c12	643 s
COc1ccc(N2CC(c3nc(-c4cccc(-c5ccnn5C)c4)no3)CC2=O)cc1 (stereo not drawn)	844 s
CN(C)S(=O)(=O)N1CCC(F)(c2nc(-c3ccccc3)no2)CC1	1030 s
CC1(C)CC(=O)CC(C)(C)N1O	666 s
COC(=O)C1=CN(c2cc(Cl)c(OC)cc2OC)c2cc(F)ccc2S1(=O)=O	918 s
CC(C)c1ccc2c(c1)-c1ccccc1S(=O)(=O)N2CC(=O)NCc1ccccn1	757 s
Cn1nnc2cc(-c3noc(C4CCCO4)n3)ccc21 (stereo not drawn)	730 s
CCCN(Cc1ccc(OC)cc1)Cc1cc(=O)n2ccc(C)cc2n1	628 s
CCn1nccc1C(=O)NCCn1c(=O)n(Cc2ccc(F)cc2)c2cccnc21	729 s
COc1ccc(-c2noc(C3CC(=O)N(c4ccc(F)cc4)C3)n2)cc1 (stereo not drawn)	912 s

From the METLIN SMRT retention time set (Domingo-Almenara et al. 2019)
